{"source": "paper PMC5843811", "about": "“^44Sc for labeling of DOTA- and NODAGA-functionalized peptides: preclinical in vitro and in vivo investigations” (EJNMMI Radiopharmacy and Chemistry, 2016)", "key": {"[1]": {"test": "Biodistribution in U87MG tumor-bearing mice", "format": "in vivo", "conditions": "female, CD-1 nude (athymic nude), mouse, iv, total radioactivity, i.v. ~5 MBq (~1 nmol), mean ± SD; for tissue to tissue ratio at 0.5 h / tissue uptake at 0.5 h: 30 min p.i.; for tissue to tissue ratio at 2 h / tissue uptake at 2 h: 2 h p.i.; for tissue to tissue ratio at 5 h / tissue uptake at 5 h: 5 h p.i.", "method": "Female athymic nude mice (CD-1 nude), age 5–6 weeks, were obtained from Charles River Laboratories, Sulzfeld, Germany. U87MG cells and AR42J-cells were suspended in PBS (5 × 10^6 cells in 100 μL) and subcutaneously inoculated on each shoulder. Two to three weeks later, when the tumor reached a size of about 300–500 mm^3, the mice were used for the in vivo studies.\nBiodistribution studies were performed with U87MG tumor and AR42J tumor-bearing mice 2 weeks after tumor cell inoculation. ^44Sc- and ^68Ga-labeled peptides (~5 MBq, ~1 nmol per mouse) were intravenously injected in a volume of 100–200 μL. Mice were sacrificed at 30 min, 2 h and 5 h after injection (p.i.) of the ^44Sc-labeled peptides. Mice which were injected with ^68Ga-labeled peptides were sacrificed at 30 min and 2 h p.i. Selected tissues and organs were collected, weighed, and counted for radioactivity using a γ-counter (Wallac Wizard 1480, Perkin Elmer). The results were listed as a percentage of the injected activity per gram of tissue mass (% IA/g), using counts of a defined volume of the original injection solution counted at the same time. The data were analyzed for significance using a two-way ANOVA test (Graph Pad Prism 6 software, version 6.05). A p-value of < 0.05 was considered statistically significant."}, "U87MG tumor-bearing mice": {"system": "U87MG tumor-bearing mice", "test": "PET/CT imaging of U87MG tumor-bearing mice", "format": "in vivo", "conditions": "3 h after i.v. injection of ~10 MBq (~1 nmol), one or two mice", "experimental": "The energy window was set to 150–650 keV. […] All static PET scans lasted for 20 min."}, "[2]": {"conditions": "U87MG tumor / blood, n=3, read-out: Tumor-to-blood ratio"}, "[3]": {"conditions": "U87MG tumor / kidneys, n=3, read-out: Tumor-to-kidney ratio"}, "[4]": {"conditions": "U87MG tumor / liver, n=3, read-out: Tumor-to-liver ratio"}, "[5]": {"conditions": "U87MG tumor, n=3, read-out: Biodistribution, U87MG Tumor"}, "[6]": {"conditions": "blood, 5 MBq per mouse, n=3, read-out: Biodistribution, Blood"}, "[7]": {"conditions": "bone, 5 MBq per mouse, n=3, read-out: Biodistribution, Bone"}, "[8]": {"conditions": "brain, 5 MBq per mouse, n=3, read-out: Biodistribution, Brain"}, "[9]": {"conditions": "heart, 5 MBq per mouse, n=3, read-out: Biodistribution, Heart"}, "[10]": {"conditions": "intestines, 5 MBq per mouse, n=3, read-out: Biodistribution, Intestines"}, "[11]": {"conditions": "kidneys, n=3, read-out: Biodistribution, Kidneys"}, "[12]": {"conditions": "liver, n=3, read-out: Biodistribution, Liver"}, "[13]": {"conditions": "lung, 5 MBq per mouse, n=3, read-out: Biodistribution, Lung"}, "[14]": {"conditions": "muscle, 5 MBq per mouse, n=3, read-out: Biodistribution, Muscle"}, "[15]": {"conditions": "pancreas, 5 MBq per mouse, n=3, read-out: Biodistribution, pancreas"}, "[16]": {"conditions": "skin, 5 MBq per mouse, n=3, read-out: Biodistribution, Skin"}, "[17]": {"conditions": "spleen, 5 MBq per mouse, n=3, read-out: Biodistribution, Spleen"}, "[18]": {"conditions": "stomach, 5 MBq per mouse, n=3, read-out: Biodistribution, Stomach"}}, "note": "Read-outs that look alike come from different tables or passages of the source."}
{"smiles": "N=C(N)NCCC[C@@H]1NC(=O)[C@H](CCCCNC(=O)CN2CCN(CC(=O)O)CCN(CC(=O)O)CCN(CC(=O)O)CC2)NC(=O)[C@@H](Cc2ccccc2)NC(=O)[C@H](CC(=O)O)NC(=O)CNC1=O", "note": "[^44Sc-DOTA-RGD, metal not drawn]", "values": [{"measurement": "tissue to tissue ratio at 0.5 h", "setting": "[1]; [2]", "result": "4.82 ± 1.6"}, {"measurement": "tissue to tissue ratio at 2 h", "setting": "[1]; [2]", "result": "40.1 ± 15.6"}, {"measurement": "tissue to tissue ratio at 5 h", "setting": "[1]; [2]", "result": "47.2 ± 18"}, {"measurement": "tissue to tissue ratio at 0.5 h", "setting": "[1]; [3]", "result": "1.16 ± 0.29"}, {"measurement": "tissue to tissue ratio at 2 h", "setting": "[1]; [3]", "result": "1.77 ± 0.13"}, {"measurement": "tissue to tissue ratio at 5 h", "setting": "[1]; [3]", "result": "1.82 ± 0.21"}, {"measurement": "tissue to tissue ratio at 0.5 h", "setting": "[1]; [4]", "result": "0.99 ± 0.14"}, {"measurement": "tissue to tissue ratio at 2 h", "setting": "[1]; [4]", "result": "0.61 ± 0.04"}, {"measurement": "tissue to tissue ratio at 5 h", "setting": "[1]; [4]", "result": "2.9 ± 0.38"}, {"measurement": "tissue uptake at 0.5 h", "setting": "[1]; [5]", "result": "4.88 ± 0.67", "unit": "%ID/g"}, {"measurement": "tissue uptake at 2 h", "setting": "[1]; [5]", "result": "2.99 ± 0.16", "unit": "%ID/g"}, {"measurement": "tissue uptake at 5 h", "setting": "[1]; [5]", "result": "3 ± 0.38", "unit": "%ID/g"}, {"measurement": "tissue uptake at 0.5 h", "setting": "[1]; [6]", "result": "1.1 ± 0.29", "unit": "%ID/g"}, {"measurement": "tissue uptake at 2 h", "setting": "[1]; [6]", "result": "0.08 ± 0.03", "unit": "%ID/g"}, {"measurement": "tissue uptake at 5 h", "setting": "[1]; [6]", "result": "0.07 ± 0.03", "unit": "%ID/g"}, {"measurement": "tissue uptake at 0.5 h", "setting": "[1]; [7]", "result": "1.17 ± 0.07", "unit": "%ID/g"}, {"measurement": "tissue uptake at 2 h", "setting": "[1]; [7]", "result": "0.56 ± 0.03", "unit": "%ID/g"}, {"measurement": "tissue uptake at 5 h", "setting": "[1]; [7]", "result": "0.52 ± 0.11", "unit": "%ID/g"}, {"measurement": "tissue uptake at 0.5 h", "setting": "[1]; [8]", "result": "0.12 ± 0.05", "unit": "%ID/g"}, {"measurement": "tissue uptake at 2 h", "setting": "[1]; [8]", "result": "0.06 ± 0.01", "unit": "%ID/g"}, {"measurement": "tissue uptake at 5 h", "setting": "[1]; [8]", "result": "0.06 ± 0.01", "unit": "%ID/g"}, {"measurement": "tissue uptake at 0.5 h", "setting": "[1]; [9]", "result": "0.96 ± 0.3", "unit": "%ID/g"}, {"measurement": "tissue uptake at 2 h", "setting": "[1]; [9]", "result": "0.31 ± 0.04", "unit": "%ID/g"}, {"measurement": "tissue uptake at 5 h", "setting": "[1]; [9]", "result": "0.3 ± 0.06", "unit": "%ID/g"}, {"measurement": "tissue uptake at 0.5 h", "setting": "[1]; [10]", "result": "1.88 ± 0.18", "unit": "%ID/g"}, {"measurement": "tissue uptake at 2 h", "setting": "[1]; [10]", "result": "1.01 ± 0.04", "unit": "%ID/g"}, {"measurement": "tissue uptake at 5 h", "setting": "[1]; [10]", "result": "1.07 ± 0.04", "unit": "%ID/g"}, {"measurement": "tissue uptake at 2 h", "setting": "[1]; kidneys, 5 MBq per mouse, n=3, read-out: Biodistribution, Kidneys", "result": "1.69 ± 0.09", "unit": "%ID/g"}, {"measurement": "tissue uptake at 0.5 h", "setting": "[1]; [11]", "result": "4.44 ± 0.51", "unit": "%ID/g"}, {"measurement": "tissue uptake at 5 h", "setting": "[1]; [11]", "result": "< 2", "unit": "%ID/g"}, {"measurement": "tissue uptake at 0.5 h", "setting": "[1]; [12]", "result": "5.16 ± 0.99", "unit": "%ID/g"}, {"measurement": "tissue uptake at 2 h", "setting": "[1]; [12]", "result": "4.9 ± 0.13", "unit": "%ID/g"}, {"measurement": "tissue uptake at 5 h", "setting": "[1]; [12]", "result": "~1", "unit": "%ID/g"}, {"measurement": "tissue uptake at 0.5 h", "setting": "[1]; [13]", "result": "2.17 ± 0.7", "unit": "%ID/g"}, {"measurement": "tissue uptake at 2 h", "setting": "[1]; [13]", "result": "0.72 ± 0.11", "unit": "%ID/g"}, {"measurement": "tissue uptake at 5 h", "setting": "[1]; [13]", "result": "0.52 ± 0.04", "unit": "%ID/g"}, {"measurement": "tissue uptake at 0.5 h", "setting": "[1]; [14]", "result": "0.66 ± 0.26", "unit": "%ID/g"}, {"measurement": "tissue uptake at 5 h", "setting": "[1]; [14]", "result": "0.28 ± 0.04", "unit": "%ID/g"}, {"measurement": "tissue uptake at 2 h", "setting": "[1]; [15]", "result": "0.35 ± 0.03", "unit": "%ID/g"}, {"measurement": "tissue uptake at 5 h", "setting": "[1]; [15]", "result": "0.39 ± 0.02", "unit": "%ID/g"}, {"measurement": "tissue uptake at 0.5 h", "setting": "[1]; pancreas, n=3, read-out: Biodistribution, pancreas", "result": "0.94 ± 0.49", "unit": "%ID/g"}, {"measurement": "tissue uptake at 0.5 h", "setting": "[1]; [16]", "result": "2.28 ± 0.39", "unit": "%ID/g"}, {"measurement": "tissue uptake at 2 h", "setting": "[1]; [16]", "result": "1.23 ± 0.2", "unit": "%ID/g"}, {"measurement": "tissue uptake at 5 h", "setting": "[1]; [16]", "result": "0.97 ± 0.06", "unit": "%ID/g"}, {"measurement": "tissue uptake at 0.5 h", "setting": "[1]; [17]", "result": "3.66 ± 0.87", "unit": "%ID/g"}, {"measurement": "tissue uptake at 2 h", "setting": "[1]; [17]", "result": "2.82 ± 0.28", "unit": "%ID/g"}, {"measurement": "tissue uptake at 5 h", "setting": "[1]; [17]", "result": "1.06 ± 0.18", "unit": "%ID/g"}, {"measurement": "tissue uptake at 0.5 h", "setting": "[1]; [18]", "result": "1.78 ± 0.23", "unit": "%ID/g"}, {"measurement": "tissue uptake at 2 h", "setting": "[1]; [18]", "result": "0.84 ± 0.19", "unit": "%ID/g"}, {"measurement": "tissue uptake at 5 h", "setting": "[1]; [18]", "result": "0.72 ± 0.07", "unit": "%ID/g"}, {"measurement": "PET/CT distribution of radioactivity (in words)", "setting": "U87MG tumor-bearing mice", "result": "clearly less accumulation of radioactivity in the liver than ^68Ga-DOTA-RGD"}]}
